Test results from patent publication US12371428B2 (Exelixis, Inc., priority 2019, dated 2025).
pIC50: −log10 of the molar value.

What was measured:
[1] = biological target: Human KDR (residues 790-1356) (Homo sapiens (Human), UniProt P35968); test: Human KDR kinase assay, HTRF KinEase (Example B-2); type: biochemical; conditions: protocol of Example B-2
Summary of the method: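 Human KDR residues 790-1356 (0.1 ng/well) in buffer with 5 mM MgCl2, 1 mM MnCl2, 1 mM DTT, biotinylated peptide substrate, ATP at Km (4.0 μM), 3% DMSO, 10 compound concentrations; 40 min, room temperature. EDTA stop, streptavidin-XL665/Eu-TK antibody HTRF read 665/620 nm; 4-parameter IC50.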

[2] = biological target: Human MER (residues 528-999) (Homo sapiens (Human), UniProt Q12866); test: Human Mer kinase assay, HTRF KinEase (Example C-2); type: biochemical; conditions: protocol of Example C-2
Summary of the method: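 IC50 values from 10 concentrations via 4-parameter logistic fit of […], with DMSO as 100% and 1 μM reference compound as 0% activity. Reaction: MER kinase domain 528-999, 1 ng/well, 40 μM ATP (Km), biotin peptide, 5 mM MgCl2, 1 mM DTT, 3% DMSO, room temperature 60 min; HTRF streptavidin-XL665/Eu-antibody detection.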

[3] = biological target: Human MET (residues 956-1390) (Homo sapiens (Human), UniProt P08581); test: Human Met kinase assay, HTRF KinEase (Example D-2); type: biochemical; conditions: protocol of Example D-2; read-out: c-Met IC50
Summary of the method: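 IC50 values come from a 4-parameter logistic fit of the […] fluorescence ratio, set between DMSO (100%) and reference compound at 1 μM (0%). Reactions held MET 956-1390 at 0.1 ng/well, ATP at Km, biotinylated peptide, 5 mM MgCl2, 1 mM MnCl2, 1 mM DTT and 3% DMSO, and ran 40 min at room temperature before streptavidin-XL665/Eu-antibody detection.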

[4] = biological target: KDR (phospho-KDR, VEGF165-stimulated HUVEC cells) (Homo sapiens (Human), UniProt P35968); test: KDR autophosphorylation ELISA in HUVEC cells (Example G); type: cell-based; conditions: cellular activity; KDR autophosphorylation ELISA in HUVEC cells
Summary of the method: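 IC50 values derive from nonlinear curve fitting of phospho-KDR levels measured by ELISA and interpolated from a phosphoprotein standard. Beforehand, starved HUVECs received compound (0.3% DMSO vehicle) for one hour and were activated with VEGF165 at 100 ng/mL for 5 min.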

KDR (phospho-KDR, VEGF165-stimulated HUVEC cells), sequence (P35968 20-1356): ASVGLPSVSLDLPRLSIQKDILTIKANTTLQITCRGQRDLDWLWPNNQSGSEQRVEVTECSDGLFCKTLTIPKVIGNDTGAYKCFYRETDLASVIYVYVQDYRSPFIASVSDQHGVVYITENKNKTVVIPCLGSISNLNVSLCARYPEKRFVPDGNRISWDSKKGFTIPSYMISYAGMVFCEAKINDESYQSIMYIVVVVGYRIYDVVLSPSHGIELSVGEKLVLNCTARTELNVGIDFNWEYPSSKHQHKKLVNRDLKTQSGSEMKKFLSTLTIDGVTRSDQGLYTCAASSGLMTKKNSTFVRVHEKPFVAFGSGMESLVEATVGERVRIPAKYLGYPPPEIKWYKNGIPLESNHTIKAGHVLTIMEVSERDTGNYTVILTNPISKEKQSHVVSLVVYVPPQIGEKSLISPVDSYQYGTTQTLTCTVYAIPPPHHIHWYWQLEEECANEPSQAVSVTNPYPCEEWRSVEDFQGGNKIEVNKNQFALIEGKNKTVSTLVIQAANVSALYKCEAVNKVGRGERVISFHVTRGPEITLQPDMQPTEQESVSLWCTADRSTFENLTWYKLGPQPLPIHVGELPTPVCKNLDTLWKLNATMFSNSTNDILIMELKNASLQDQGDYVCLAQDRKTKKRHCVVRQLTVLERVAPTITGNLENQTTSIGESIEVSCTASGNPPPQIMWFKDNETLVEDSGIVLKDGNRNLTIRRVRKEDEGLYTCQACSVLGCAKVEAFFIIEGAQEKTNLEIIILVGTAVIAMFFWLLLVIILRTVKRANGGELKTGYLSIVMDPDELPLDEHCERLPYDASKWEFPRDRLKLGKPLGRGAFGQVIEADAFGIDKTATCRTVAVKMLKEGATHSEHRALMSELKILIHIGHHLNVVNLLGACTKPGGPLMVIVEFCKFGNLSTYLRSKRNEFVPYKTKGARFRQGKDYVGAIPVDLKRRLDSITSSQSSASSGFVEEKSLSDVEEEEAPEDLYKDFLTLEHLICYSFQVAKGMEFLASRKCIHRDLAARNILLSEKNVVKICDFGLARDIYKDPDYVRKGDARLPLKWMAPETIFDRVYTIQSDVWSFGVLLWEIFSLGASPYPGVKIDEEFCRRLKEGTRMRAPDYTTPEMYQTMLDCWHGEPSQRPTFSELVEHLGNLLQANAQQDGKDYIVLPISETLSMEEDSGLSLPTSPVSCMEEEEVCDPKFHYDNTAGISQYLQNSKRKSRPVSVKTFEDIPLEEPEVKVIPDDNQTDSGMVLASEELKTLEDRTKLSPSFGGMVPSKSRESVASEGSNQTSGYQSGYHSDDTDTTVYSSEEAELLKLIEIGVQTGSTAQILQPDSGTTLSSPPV
Human MER (residues 528-999), sequence (Q12866 528-999): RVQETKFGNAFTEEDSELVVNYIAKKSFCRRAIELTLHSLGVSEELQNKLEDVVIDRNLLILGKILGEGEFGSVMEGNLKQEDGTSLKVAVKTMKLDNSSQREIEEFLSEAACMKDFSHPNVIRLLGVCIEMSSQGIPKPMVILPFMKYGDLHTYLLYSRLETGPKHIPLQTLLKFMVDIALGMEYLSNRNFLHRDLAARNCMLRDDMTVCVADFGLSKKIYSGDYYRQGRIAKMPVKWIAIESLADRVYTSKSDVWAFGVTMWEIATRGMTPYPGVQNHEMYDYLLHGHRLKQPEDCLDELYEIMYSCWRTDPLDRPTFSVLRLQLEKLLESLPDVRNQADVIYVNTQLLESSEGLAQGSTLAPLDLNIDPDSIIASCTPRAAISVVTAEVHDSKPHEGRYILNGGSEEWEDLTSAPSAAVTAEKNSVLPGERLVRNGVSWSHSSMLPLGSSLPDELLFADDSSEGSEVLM
Human KDR (residues 790-1356), sequence (P35968 790-1356): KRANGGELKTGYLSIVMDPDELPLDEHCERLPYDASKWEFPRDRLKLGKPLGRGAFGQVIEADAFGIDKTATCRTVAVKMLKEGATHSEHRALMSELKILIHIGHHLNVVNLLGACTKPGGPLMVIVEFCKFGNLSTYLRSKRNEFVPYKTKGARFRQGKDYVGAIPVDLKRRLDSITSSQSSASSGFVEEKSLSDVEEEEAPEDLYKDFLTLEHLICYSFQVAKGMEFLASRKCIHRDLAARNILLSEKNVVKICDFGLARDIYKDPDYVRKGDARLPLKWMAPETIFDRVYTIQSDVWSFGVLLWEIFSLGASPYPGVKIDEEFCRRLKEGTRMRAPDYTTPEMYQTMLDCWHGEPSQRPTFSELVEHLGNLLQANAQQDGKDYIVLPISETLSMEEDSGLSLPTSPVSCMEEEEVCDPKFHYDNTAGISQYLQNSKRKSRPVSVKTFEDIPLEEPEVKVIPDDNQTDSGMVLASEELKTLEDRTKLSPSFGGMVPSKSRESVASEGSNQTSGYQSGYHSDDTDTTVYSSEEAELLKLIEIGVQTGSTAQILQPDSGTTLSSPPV
Human MET (residues 956-1390), sequence (P08581 956-1390): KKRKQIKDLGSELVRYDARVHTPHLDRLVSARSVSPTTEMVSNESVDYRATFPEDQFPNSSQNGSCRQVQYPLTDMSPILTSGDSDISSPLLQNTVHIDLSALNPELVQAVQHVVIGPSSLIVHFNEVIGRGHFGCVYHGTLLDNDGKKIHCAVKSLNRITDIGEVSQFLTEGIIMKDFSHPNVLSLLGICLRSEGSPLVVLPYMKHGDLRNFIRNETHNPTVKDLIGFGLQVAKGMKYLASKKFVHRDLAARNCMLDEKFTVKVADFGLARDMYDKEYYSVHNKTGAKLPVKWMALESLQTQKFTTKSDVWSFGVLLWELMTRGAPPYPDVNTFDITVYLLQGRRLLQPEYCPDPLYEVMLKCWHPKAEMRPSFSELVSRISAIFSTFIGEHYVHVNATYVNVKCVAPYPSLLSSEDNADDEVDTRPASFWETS

SMILES	pIC50 [1]	pIC50 [2]	pIC50 [3]	pIC50 [4]
COc1cc2nccc(Oc3ccc(NC(=O)c4cn(C(C)C)c(C)c(-c5ccc(F)cc5)c4=O)cc3F)c2nc1N [Compound 579, N-[4-[(6-Amino-7-methoxy-1,5-naphthyridin-4-yl)oxy]-3-fluorophenyl]-5-(4-fluorophenyl)-6-methyl-4-oxo-1-propan-2-ylpyridine-3-carboxamide]	< 6.52	> 7.00	> 7.00	< 6.52
COc1cc2nccc(Oc3ccc(NC(=O)c4cn(C(C)C)c(C)c(-c5ccc(F)cc5)c4=O)cc3F)c2nc1O [Compound 580, N-[3-Fluoro-4-[(6-hydroxy-7-methoxy-1,5-naphthyridin-4-yl)oxy]phenyl]-5-(4-fluorophenyl)-6-methyl-4-oxo-1-propan-2-ylpyridine-3-carboxamide]	< 6.52	> 7.00	> 7.00	< 6.52
CNc1c(-c2ccc(F)cc2)c(=O)c(C(=O)Nc2ccc(Oc3ccnc4cc(OC)cnc34)c(F)c2)cn1C [Compound 585, N-[3-Fluoro-4-[(7-methoxy-1,5-naphthyridin-4-yl)oxy]phenyl]-5-(4-fluorophenyl)-1-methyl-6-(methylamino)-4-oxopyridine-3-carboxamide]	< 6.52	> 7.00	> 7.00	< 6.52
COc1cnc2c(Oc3ccc(NC(=O)c4cn(C)c(C#N)c(-c5ccc(F)cc5)c4=O)cc3F)ccnc2c1 [Compound 586, 6-Cyano-N-[3-fluoro-4-[(7-methoxy-1,5-naphthyridin-4-yl)oxy]phenyl]-5-(4-fluorophenyl)-1-methyl-4-oxopyridine-3-carboxamide]	< 6.52	> 7.00	> 7.00	< 6.52
COc1cnc2c(Oc3ccc(NC(=O)c4cn(C)c(OC)c(-c5ccc(F)cc5)c4=O)cc3F)ccnc2c1 [Compound 587, N-[3-Fluoro-4-[(7-methoxy-1,5-naphthyridin-4-yl)oxy]phenyl]-5-(4-fluorophenyl)-6-methoxy-1-methyl-4-oxopyridine-3-carboxamide]	< 6.52	> 7.00	> 7.00	< 6.52
CCc1nc2c(Oc3ccc(NC(=O)c4cn(C(C)C)c(C)c(-c5ccc(F)cc5)c4=O)cc3F)ccnc2cc1OC [Compound 588, N-[4-[(6-Ethyl-7-methoxy-1,5-naphthyridin-4-yl)oxy]-3-fluorophenyl]-5-(4-fluorophenyl)-6-methyl-4-oxo-1-propan-2-ylpyridine-3-carboxamide]	< 6.52	> 7.00	> 7.00	< 6.52
Cc1cc(F)ccc1-c1c(C)ncc(C(=O)Nc2ccc(Oc3ccnc4cc(C(C)C)cnc34)c(F)c2)c1O [Compound 593, 5-(4-Fluoro-2-methylphenyl)-N-[3-fluoro-4-[(7-propan-2-yl-1,5-naphthyridin-4-yl)oxy]phenyl]-4-hydroxy-6-methylpyridine-3-carboxamide]	< 6.52	6.52 to 7.00	6.52 to 7.00	> 7.00
Cc1ncc(C(=O)Nc2ccc(Oc3ccnc4cc(C(C)C)cnc34)cc2)c(O)c1-c1ccc(F)cc1 [Compound 594, 5-(4-Fluorophenyl)-4-hydroxy-6-methyl-N-[4-[(7-propan-2-yl-1,5-naphthyridin-4-yl)oxy]phenyl]pyridine-3-carboxamide]	< 6.52	> 7.00	> 7.00	> 7.00
Cc1nc(C)c(-c2ccc(F)cc2)c(O)c1C(=O)Nc1ccc(Oc2ccnc3cc(C(C)C)cnc23)c(F)c1 [Compound 595, 5-(4-Fluorophenyl)-N-[3-fluoro-4-[(7-propan-2-yl-1,5-naphthyridin-4-yl)oxy]phenyl]-4-hydroxy-2,6-dimethylpyridine-3-carboxamide]	6.52 to 7.00	> 7.00	6.52 to 7.00	> 7.00

More lines, now with the values ahead:

pIC50 [1]	pIC50 [2]	pIC50 [3]	pIC50 [4]	SMILES
> 7.00	> 7.00	> 7.00	> 7.00	COc1cc2nccc(Oc3ccc(NC(=O)c4cnc(N)n(-c5ccc(F)cc5)c4=O)cc3F)c2nc1OC [Compound 565, 2-Amino-N-[4-[(6,7-dimethoxy-1,5-naphthyridin-4-yl)oxy]-3-fluorophenyl]-1-(4-fluorophenyl)-6-oxopyrimidine-5-carboxamide]
> 7.00	> 7.00	> 7.00	> 7.00	CCn1nc(C(=O)Nc2ccc(Oc3ccnc4cc(OC)c(OC)nc34)c(F)c2)c(=O)c(-c2ccc(F)cc2)c1C [Compound 568, N-[4-[(6,7-Dimethoxy-1,5-naphthyridin-4-yl)oxy]-3-fluorophenyl]-1-ethyl-5-(4-fluorophenyl)-6-methyl-4-oxopyridazine-3-carboxamide]
> 7.00	> 7.00	> 7.00	> 7.00	Cc1ncc(C(=O)Nc2ccc(Oc3ccnc4cc(C(N)=O)cnc34)c(F)c2)c(O)c1-c1ccc(F)cc1 [Compound 577, 8-[2-Fluoro-4-[[5-(4-fluorophenyl)-4-hydroxy-6-methylpyridine-3-carbonyl]amino]phenoxy]-1,5-naphthyridine-3-carboxamide]
6.52 to 7.00	> 7.00	> 7.00	< 6.52	CNC(=O)c1cnc2c(Oc3ccc(NC(=O)c4cnc(C)c(-c5ccc(F)cc5)c4O)cc3F)ccnc2c1 [Compound 578, 8-[2-Fluoro-4-[[5-(4-fluorophenyl)-4-hydroxy-6-methylpyridine-3-carbonyl]amino]phenoxy]-N-methyl-1,5-naphthyridine-3-carboxamide]
> 7.00	> 7.00	> 7.00	< 6.52	COc1cc2nccc(Oc3ccc(NC(=O)c4cn(C(C)C)c(C)c(-c5ccc(F)cc5)c4=O)cc3F)c2nc1NS(C)(=O)=O [Compound 581, N-[3-Fluoro-4-[[6-(methanesulfonamido)-7-methoxy-1,5-naphthyridin-4-yl]oxy]phenyl]-5-(4-fluorophenyl)-6-methyl-4-oxo-1-propan-2-ylpyridine-3-carboxamide]
> 7.00	> 7.00	> 7.00	6.52 to 7.00	CNc1nc2c(Oc3ccc(NC(=O)c4cn(C(C)C)c(C)c(-c5ccc(F)cc5)c4=O)cc3F)ccnc2cc1OC [Compound 582, N-[3-Fluoro-4-[[7-methoxy-6-(methylamino)-1,5-naphthyridin-4-yl]oxy]phenyl]-5-(4-fluorophenyl)-6-methyl-4-oxo-1-propan-2-ylpyridine-3-carboxamide]
> 7.00	> 7.00	> 7.00	> 7.00	COc1cc2nccc(Oc3ccc(NC(=O)c4cnc(C)c(-c5ccc(F)cc5)c4O)cc3F)c2nc1NS(C)(=O)=O [Compound 584, N-[3-Fluoro-4-[[6-(methanesulfonamido)-7-methoxy-1,5-naphthyridin-4-yl]oxy]phenyl]-5-(4-fluorophenyl)-4-hydroxy-6-methylpyridine-3-carboxamide]
> 7.00	> 7.00	> 7.00	> 7.00	CCc1nc2c(Oc3ccc(NC(=O)c4cnc(C)c(-c5ccc(F)cc5)c4O)cc3F)ccnc2cc1OC [Compound 589, N-[4-[(6-Ethyl-7-methoxy-1,5-naphthyridin-4-yl)oxy]-3-fluorophenyl]-5-(4-fluorophenyl)-4-hydroxy-6-methylpyridine-3-carboxamide]
